Drawing on patent publication US20240124503A1, “HETEROAROMATIC PHOSPHONIUM SALTS AND THEIR USE TREATING CANCER” (FLORATEK PHARMA S.A., priority 2021, published 2024), this text covers IC50 and Kd for 2 compounds.

One test relates to SK-N-AS. The experiment in a line: Cell viability assay, SK-N-AS. Format: cell-based. The following applies: Homo sapiens; brain carcinoma cell line SK-N-AS. The protocol: (§1) Antitumor activity of the compounds and doxorubicin as a positive control was assessed by using the CellTiter-Blue Cell Viability Assay (Promega, #G8082) or CellTiter-Glow® Luminescent Cell Viability assay (Promega #G7572) according to the manufacturer's instructions. The compounds were tested at 5 or 6 concentrations in half-log increments (highest concentration 30 μM or 100 μM) in duplicate or triplicate well conditions.
(§2) Tumor cells were grown at 37° C. in a humidified atmosphere with 5% CO2 in RPMI 1640 or DMEM medium, supplemented with 10% (v/v) fetal calf serum and 50 μg/ml gentamicin for up to 20 passages, and were passaged once or twice weekly. Cells were harvested using TrypLE or PBS buffer containing 1 mM EDTA, and the percentage of viable cells was determined using a CASY Model TI cell counter (OMNI Life Science). Cells were harvested from exponential phase cultures, counted and plated in 96 well flat-bottom microtiter plates at a cell density depending on the cell line's growth rate (4,000-20,000 cells/well depending on the cell line's growth rate, up to 60,000 for hematological cancer cell lines) in RPMI 1640 or DMEM medium supplemented with 10% (v/v) fetal calf serum and 50 μg/ml gentamicin (140 μl/well). […] Viability of cells was quantified by the CellTiter-Blue® cell viability assay (Promega G8081) or CellTiter-Glow® Luminescent Cell Viability assay (Promega #G7572). […]

Another test has as its target T1, TIE2 (Homo sapiens, UniProt Q02763).
T1 construct: purchased Eurofins (KINOMEscan); host or cells: E. coli BL21-derived host (T7 phage) or HEK-293
The experiment in a line: KINOMEscan competition binding, TIE2. The protocol:
Selected compounds were screened for kinase inhibition using the KINOMEscan™ assay (Eurofins) which is based on a competition binding assay that quantitatively measures the ability of a compound to compete with an immobilized, active-site directed ligand. The assay was performed by combining three components: DNA-tagged kinase; immobilized ligand; and the test compound. The ability of the test compound to compete with the immobilized ligand was measured via quantitative PCR of the DNA tag.
Kinase-tagged T7 phage strains were prepared in an E. coli host derived from the BL21 strain. E. coli were grown to log-phase and infected with T7 phage and incubated with shaking at 32° C. until lysis. The lysates were centrifuged and filtered to remove cell debris. The remaining kinases were produced in HEK-293 cells and subsequently tagged with DNA for qPCR detection. Streptavidin-coated magnetic beads were treated with biotinylated small molecule ligands for 30 minutes at room temperature to generate affinity resins for kinase assays. […] Kds were determined using an 11-point 3-fold compound dilution series with three DMSO control points. […] The kinase concentration in the eluates was measured by qPCR. […]
Binding constants (Kds) were calculated with a standard dose-response curve using the Hill equation: Response=Background+[Signal−Background/1+(Kd^Hill Slope/Dose^Hill Slope)] […]

Another test relates to ovarian cancer cell. Briefly: Cell viability, ovarian cancer cells (panel statement). Format: cell-based. The following applies: Table 17; read-out: IC50, ovarian cancer cell growth. The protocol:
as §1, §2

The subject of a further test is H69AR. Briefly: Cell viability assay, H69AR. It counts as cell-based. The following applies: SCLC doxorubicin resistant cell line H69AR. The protocol:
as §1, §2

The structures appear in SMILES notation. A value given as a limit tells only on which side of the number the result lay.

T1 sequence (Q02763 23-1124): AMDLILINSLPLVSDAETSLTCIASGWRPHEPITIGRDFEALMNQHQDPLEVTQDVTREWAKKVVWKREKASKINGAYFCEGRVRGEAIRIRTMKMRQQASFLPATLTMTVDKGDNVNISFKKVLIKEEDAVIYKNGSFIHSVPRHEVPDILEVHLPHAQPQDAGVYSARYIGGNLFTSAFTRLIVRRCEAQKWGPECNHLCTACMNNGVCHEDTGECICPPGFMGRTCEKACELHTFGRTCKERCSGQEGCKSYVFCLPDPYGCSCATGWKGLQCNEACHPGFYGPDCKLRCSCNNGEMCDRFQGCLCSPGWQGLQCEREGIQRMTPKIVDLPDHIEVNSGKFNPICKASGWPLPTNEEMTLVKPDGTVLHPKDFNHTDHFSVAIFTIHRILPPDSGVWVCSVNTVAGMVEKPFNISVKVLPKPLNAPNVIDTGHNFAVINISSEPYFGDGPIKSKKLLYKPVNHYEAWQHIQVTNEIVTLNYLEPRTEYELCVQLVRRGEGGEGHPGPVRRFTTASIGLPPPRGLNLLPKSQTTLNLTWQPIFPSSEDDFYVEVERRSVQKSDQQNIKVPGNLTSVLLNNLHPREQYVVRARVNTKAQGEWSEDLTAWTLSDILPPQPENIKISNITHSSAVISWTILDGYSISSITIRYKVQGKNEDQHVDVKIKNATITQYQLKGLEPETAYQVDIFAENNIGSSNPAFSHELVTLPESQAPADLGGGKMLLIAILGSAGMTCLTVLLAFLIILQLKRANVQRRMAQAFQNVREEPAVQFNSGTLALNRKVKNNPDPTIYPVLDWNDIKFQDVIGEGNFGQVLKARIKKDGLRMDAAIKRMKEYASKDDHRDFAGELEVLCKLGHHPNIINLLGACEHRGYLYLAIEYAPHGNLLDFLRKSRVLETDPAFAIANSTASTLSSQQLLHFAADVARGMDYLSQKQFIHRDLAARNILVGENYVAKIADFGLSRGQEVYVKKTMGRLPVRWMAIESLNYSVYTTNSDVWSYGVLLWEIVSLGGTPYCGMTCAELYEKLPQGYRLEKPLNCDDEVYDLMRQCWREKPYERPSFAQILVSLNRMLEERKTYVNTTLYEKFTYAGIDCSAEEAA

With `COc1c(O)ccc2c(=O)c(O)c(-c3ccc(CCCC[P+](c4ccccc4)(c4ccccc4)c4ccccc4)cc3)oc12` [SND190, (4-(4-(3,7-Dihydroxy-8-methoxy-4-oxo-4H1-chromen-2-yl)phenyl)butyl)triphenylphosphonium bromide], the IC50 is 3000 nM in the test with SK-N-AS and less than 20000 nM in the test on ovarian cancer cell. The dissociation constant Kd at TIE2 is 40 nM.

`O=c1cc(-c2ccc(CCC[P+](c3ccccc3)(c3ccccc3)c3ccccc3)cc2)oc2c(O)c(O)ccc12` [SND200, (3-(4-(7,8-Dihydroxy-4-oxo-4H1-chromen-2-yl)phenyl)propyl)triphenylphosphonium bromide]: the IC50 in the test on H69AR was in the range of 4000 to 25000 nM.
